# Source: US12570606B2, “Myeloperoxidase imaging agents” (The General Hospital Corporation, priority 2016, dated 2026)
# Assays:
# MPO [1] = target: T1, MPO (Homo sapiens, UniProt P05164); assay: MPO-PET matrigel implantation imaging in mice; assay type: in vivo, mouse; details: for Background, organ uptake and defluorination: matrigel PET imaging in mice
# T1 sequence (P05164 49-745): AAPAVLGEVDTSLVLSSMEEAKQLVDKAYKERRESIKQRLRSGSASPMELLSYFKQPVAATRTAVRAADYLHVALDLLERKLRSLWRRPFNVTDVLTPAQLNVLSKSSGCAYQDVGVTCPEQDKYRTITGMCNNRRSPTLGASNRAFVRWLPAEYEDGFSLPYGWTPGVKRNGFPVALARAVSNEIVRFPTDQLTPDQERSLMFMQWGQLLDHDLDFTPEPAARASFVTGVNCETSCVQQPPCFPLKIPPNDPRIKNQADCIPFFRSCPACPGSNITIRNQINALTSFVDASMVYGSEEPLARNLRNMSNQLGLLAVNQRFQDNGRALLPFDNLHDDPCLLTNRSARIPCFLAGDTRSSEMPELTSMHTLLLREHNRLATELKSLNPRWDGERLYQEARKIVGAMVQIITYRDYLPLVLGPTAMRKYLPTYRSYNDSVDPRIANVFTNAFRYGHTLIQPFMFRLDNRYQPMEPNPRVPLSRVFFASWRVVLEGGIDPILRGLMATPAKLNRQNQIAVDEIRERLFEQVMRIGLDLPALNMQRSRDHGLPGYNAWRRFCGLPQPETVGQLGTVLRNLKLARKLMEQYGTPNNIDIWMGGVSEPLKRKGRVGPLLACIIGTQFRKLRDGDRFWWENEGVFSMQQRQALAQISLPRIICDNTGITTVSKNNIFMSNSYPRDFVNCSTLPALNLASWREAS
# Method: 300 μL of 1:1 mixture of matrigel and minimal essential medium (MEM) containing GOX and/or different concentrations of MPO (0, 15 μL, 30 μL) was injected subcutaneously into the ventral aspect of the thighs of the mouse. After 30 min, 300-600 μCi of MPO Compound 9 was injected intravenously. After 2 h, the mice were scanned using PET scanning.
# To validate the efficacy of the MPO PET agents for in vivo applications, matrigel implantation experiments were performed by embedding MPO in matrigel along with glucose oxidase (GOX) as H2O2 donor. Matrigel is a gelatinous protein mixture that is liquid at 0° C. but forms a gel at body temperature while remaining diffusible to molecules from the bloodstream when injected into living animals (see e.g., Chen et al, Radiology, 2006, 240(2):473-481). The MPO/matrigel mixtures were injected subcutaneously to the thighs of the mice followed by injection of the MPO PET tracers 30 min later. […] The signal of MPO side was around 1.7 fold higher compared to that of control side.
# To verify the specificity of Compound 9 over MPO, different concentrations of MPO (0, 15 μL, 30 μL) were embedded in matrigel for the implantation experiments.
# MPO activity = assay: Irritant contact dermatitis (PMA) in vivo FRI; set-up: species or system mouse; details: wildtype mice
# Method: Female C57Bl/6J (wildtype, Jackson laboratories, Bar Harbor, Me.) and MPO-knockout (KO, Jackson laboratories) mice were treated topically with 0.08 μmol Phorbol 12-myristate 13-acetate (PMA, Sigma, St. Louis, Mo.) on one hind-paw and with vehicle on the other to induce irritant contact dermatitis. This model is well described in the literature and triggers rapid inflammation with influx of neutrophils into the skin. 6 hours after induction, mice were injected intravenously with either 2 nmol of Compound 3 or the non-specific analogue, Compound 18. 1 hour later, 2.5 μg SA-647 was injected intravenously to bind to the biotinylated Compound 3. Mice underwent in vivo imaging using a dedicated in vivo FRI system as described above in Example 11.
# MPO [2] = target: T2, MPO (Mus musculus, UniProt P11247); assay: CFA paw inflammation PET imaging and treatment by MPO inhibitor PF-1355; assay type: in vivo; set-up: from tissue; host or cells: inflamed forepaw of living mice (CFA)
# T2 sequence (P11247 139-718): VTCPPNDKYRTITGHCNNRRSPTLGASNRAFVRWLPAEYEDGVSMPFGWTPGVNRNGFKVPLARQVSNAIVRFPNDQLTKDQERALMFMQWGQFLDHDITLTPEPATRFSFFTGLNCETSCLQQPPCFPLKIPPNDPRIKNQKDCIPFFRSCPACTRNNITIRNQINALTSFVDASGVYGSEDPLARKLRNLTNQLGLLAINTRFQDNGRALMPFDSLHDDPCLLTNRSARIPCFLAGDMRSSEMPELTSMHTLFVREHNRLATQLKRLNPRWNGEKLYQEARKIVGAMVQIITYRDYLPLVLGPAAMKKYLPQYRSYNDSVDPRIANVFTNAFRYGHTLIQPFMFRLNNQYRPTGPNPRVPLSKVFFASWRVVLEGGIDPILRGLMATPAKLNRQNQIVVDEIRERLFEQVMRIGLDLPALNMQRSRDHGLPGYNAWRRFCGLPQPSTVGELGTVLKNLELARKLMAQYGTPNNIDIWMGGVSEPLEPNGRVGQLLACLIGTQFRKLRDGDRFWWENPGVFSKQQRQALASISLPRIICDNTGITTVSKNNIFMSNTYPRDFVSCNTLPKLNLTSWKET
# Method: Each pair contained one treated and one untreated, number of pairs, n=3. The 1/1 emulsion of CFA/PBS (40 μL) was injected subcutaneously on the dorsal side of one forepaw under isoflurane anesthesia, and PBS (40 μL) was injected on the other forepaw as control. After 1 h, the treated group was given PF-1355 (50 mg/kg) by gavage, then treated every 6 h for another 3 times, and the control group was treated with vehicle (10 mL/kg) accordingly. After 24 h, 300-600 uCi of Compound 9 was injected intravenously. After another 2 h, each pair of the mice was scanned side by side.
# After validating the efficacy of the MPO Compound 9 in matrigel experiments, the specificity of the agent in inflammation was investigated. Complete Freund's Adjuvant (CFA) or its emulsion can cause inflammation when injected subcutaneously to the animal. The CFA emulsion was injected to one dorsal side of the forepaw of the mouse and the other side was injected with PBS. After 24 h, Compound 9 was injected intravenously and scanned 2 h after injection. […] To further verify the specificity of the MPO Compound 9, the mice were treated with MPO inhibitor PF-1355 1 h after CFA emulsion injection and continuously every 6 h afterwards for 4 times before injecting the Compound 9. The control group was treated with vehicle after CFA injection. Then each pair of the mice from treated and untreated groups were scanned.
smiles,measurement,setting,value
O=C(Cc1c[nH]c2ccc(O)cc12)NC(Cc1c[nH]c2ccc(O)cc12)C(=O)NCCCCCC[18F] (centres unmarked) [Compound 5],"Background, organ uptake and defluorination",MPO [1],high heart and liver uptake and high background were observed from defluorination
O=C(NC(Cc1c[nH]c2ccc(O)cc12)C(=O)NCCc1c[nH]c2ccc(O)cc12)c1ccc([18F])cc1 (centres unmarked) [Compound 7],PET signal of MPO side,MPO [1]; matrigel MPO thigh vs control thigh,low signal
same,"Background, organ uptake and defluorination",MPO [1],high heart uptake
"O=C(CCCC[C@@H]1SC[C@@H]2NC(=O)N[C@@H]21)N[C@@H](Cc1c[nH]c2ccccc12)C(=O)NCCc1c[nH]c2ccccc12 [Compound 18, N—((S)-1-((2-(1H-indol-3-yl)ethyl)amino)-3-(1H-indol-3-yl)-1-oxopropan-2-yl)-5-((3aS,4S,6aR)-2-oxohexahydro-1H-thieno[3,4-d]imidazol-4-yl)pentanamide]","Fluorescence intensity, PMA-treated hind-paw",MPO activity,50.1±5.8 RFU
same,"Fluorescence intensity, vehicle-treated hind-paw",MPO activity,28.4±5.5 RFU
COc1ccc(OC)c(-c2cc(=O)[nH]c(=S)n2CC(N)=O)c1 [PF-1355],Ratio of PF-1355 treated to untreated,MPO [2]; mean of three pairs,.410
same,% Inhibition,"MPO [2]; mean of three pairs, PF-1355 50 mg/kg by gavage, Compound 9 PET",59%
same,"Compound 9 uptake in inflamed paw, PF-1355 treated","MPO [2]; mean of three pairs, PF-1355 50 mg/kg by gavage",.0622 SUV
same,"Compound 9 uptake in inflamed paw, PF-1355 treated","MPO [2]; mouse pair 1, PF-1355 50 mg/kg by gavage",.0555 SUV
same,"Compound 9 uptake in inflamed paw, PF-1355 treated","MPO [2]; mouse pair 2, PF-1355 50 mg/kg by gavage",.0736 SUV
same,"Compound 9 uptake in inflamed paw, PF-1355 treated","MPO [2]; mouse pair 3, PF-1355 50 mg/kg by gavage",.0575 SUV
